Results: patent publication US4666907A, “Phenothiazine and derivatives and analogs and use as leukotriene biosynthesis inhibitors” (Merck Frosst Canada, Inc., priority 1986, dated 1987)
In brackets after ≈: the same amount, converted by molar mass. Like-named read-outs stand apart in the source and are kept apart here.

Experiments:
asthmatic rats = assay: Asthmatic rat assay (duration of dyspnoea after egg albumin aerosol); type: in vivo; settings: po; for inhibition in vivo at 3 mg/kg: 3 mg/kg p.o.; for inhibition in vivo at 1.5 mg/kg: 1.5 mg/kg p.o.
Source text: Rats were obtained from an inbred line of asthmatic rats. Both female and male rats from 200 to 300 g were used.
Egg albumin (EA), grade V, crystallized and lyophilized, was obtained from Sigma Chemical Co., St. Louis. Bordetella pertussis vaccine, containing 30×10^9 killed bacteria per ml was obtained from the Institut Armand-Frappier, Laval des Rapides, Quebec. Aluminum hydroxide was obtained from the Regeis Chemical Company, Chicago.
The challenge and subsequent respiratory recordings were carried out in a clear plastic box with internal dimensions 10×6×4 inches. The top of the box was removable; in use, it was held firmly in place by four clamps and an airtight seal was maintained by a soft rubber gasket. […] A Fleisch No. 0000 pneumotachograph was inserted into one end of the box and coupled to a Grass volumetric pressure transducer (PT5-A) which was then connected to a Beckman Type R Dynograph through appropriate couplers. While aerosilizing the antigen, the outlets were open and the pneumotachograph was isolated from the chamber. The outlets were closed and the pneumotachograph and the chamber were connected during the recording or the respiratory patterns. For challenge, 2 ml of a 3% solution of antigen in saline was placed into each nebulizer and the aerosol was generated with air from a small Potter diaphragm pump operating at 10 psi and a flow of 8 liters/minutes.
Rats were sensitized by injection (s.c.) 1 ml of a suspension containing 1 mg EA and 200 mg aluminum hydroxide in saline. Simultaneously, they received an injection (i.p.) of 0.5 ml of B. pertussis vaccine. They were used between days 14 and 18 postsensitization. In order to eliminate the serotonin component of the response, rats were pretreated intravenously 5 minutes prior to aerosol challenge with […] methylserzide. Rats were then exposed to an aerosol of 3% EA in saline for exactly 1 minute, then their respiratory profiles were recorded for a further 25-30 minutes. The duration of continuous dyspnoea was measured from the respiratory recordings.
Compounds were generally administered either intraperitoneally 1 hour prior to challenge or orally 11/2 hours prior to challenge. They were either dissolved in dimethylsulfoxide or suspended in 0.1% methocel and 0.5% Tween 80. The volume injected has 2 ml kg^-1 (intraperitoneally) or 10 ml kg^-1 (orally). Prior to oral treatment rats were starved overnight. Their activity was determined in terms of their ability to decrease the duration of symptoms of dyspnoea in comparison with a group of vehicle-treated controls. Usually, a compound was evaluated at a series of doses and an ED50 was determined. This was defined as the dose (mg/kg) which would inhibit the duration of symptoms by 50%.

[1] = tested on: LTB4 formation in rat PMN; assay: Rat polymorphonuclear leukocyte (P.M.N.) assay, LTB4 formation; type: cell-based; settings: A-23187, LTB4
Method: Rats under ether anesthesia are injected (i.p.) with 8 ml of a suspension of sodium caseinate (6 grams in ca. 50 ml water). After 15-24 hours the rats are sacrificed (CO2) and the cells from the peritoneal cavity are recovered by lavage with 20 ml of buffer (Eages MEM containing 30 mM HEPES adjusted to pH 7.4 with NaOH). The cells are pelleted (350×g, 5 min.), resuspended in buffer with vigorous shaking, filtered through lens paper, recentrifuged and finally suspended in buffer at a concentration of […]. A 500 μl aliquot of PMN suspension and test compound are preincubated for 2 minutes at 37° C., followed by the addition of 10 μM A-23187. The suspension is stirred for an additional 4 minutes then bioassayed for LTB4 content by adding an aliquot to a second 500 μl portion of the PMN at 37° C. The LTB4 produced in the first incubation causes aggregation of the second PMN, which is measured as a change in light transmission. The size of the assay aliquot is chosen to give a submaximal transmission change (usually […]) for the untreated control. The percentage inhibition of LTB4 formation is calculated from the ratio of transmission change in the sample to the transmission change in the compound-free control.

[2] = tested on: Mouse peritoneal macrophages; assay: Mouse macrophage assay (zymosan-stimulated arachidonic acid metabolites, Leukotriene C4); type: cell-based; settings: read-out: Macrophage IC50
Method: Mouse peritoneal macrophages were treated sequentially with arachidonic acid (labelled with tritium); the compound being evaluated as an inhibitor, and a stimulator (zymosan). Metabolites derived from arachidonic acid (PGE2, 6-Keto PG-F1@ and Leukotriene C4) were separated from the incubation medium by extraction and chromatography, and then quantitated by determining the amount of radioactivity (cpm) associated with each of them. […] (This protocol is identical to that described in the reference except that the radioactivity herein associated with the LTC4 was determined by counting an aliquot of the final aqueous solution directly rather than chromatographing it first).
Reference: Humes, J. L. et al., J. Biol. Chem. 257, 1591-4 (1982).

[3] = tested on: sensitized guinea pig trachea; assay: Antigen challenge 'in vitro' assay (egg albumin-induced contraction of sensitized tracheal chains); type: cell-based; settings: Cavia porcellus; for inhibition at 10 µg/mL / inhibition at 1 µg/mL: read-out: In Vitro Antigen Challenge % Inhibition; for inhibition at 3 µg/mL: at 3 μg/ml
Method: Male guinea pigs weighing 300-350 g were sensitized by injecting (i.p.) 0.5 ml of a suspension containing 0.4 mg of egg albumin (Ovalbumin, Grade V, Sigma Chemical Co.) and 4.0 g aluminum hydroxide in 19.6 ml of saline. Two weeks were permitted for sensitization to occur.
Three sensitized guinea pigs were stunned and exsanguinated. The tracheas were removed, freed of adhering tissue and divided longitudinally by cutting through the cartilaginous tissue directly opposite the muscle insertion. Each opened trachea was then transected between every second cartilage. Four of the cut sections were tied together, end to end in a series with No. 0.7 silk thread ensuring that the tracheal muscles were all in the same vertical plane. Thus, each chain consisted of tissue from three different animals.
The chain so formed was then suspended under 1 g of tension (by silk ties at each end) in a 20 ml organ bath containing 10 ml of modified^1 Krebs-Henseleit buffer solution gassed with 95% O2 and 5% CO2 at 37° C. Mepyramine (0.55 μg/ml) and indomethacin (2.67 μg/ml were added to the buffer to avoid the contribution of histamine receptors and cyclooxygenase products to the contraction. To record responses one end of the tracheal chain was attached to a Gould Statham UC-2 force displacement transducer which was connected to a Beckman Type R-dynograph.The preparations were allowed to equilibrate for one hour during which time the tissues were automatically washed (10 ml volume displacement) ever 6 minutes.
After the equilibration period the tissues were primed with methacholine (3 μg/lml; 1.5×10^-5 M), washed and allowed to recover to baseline. The tissues were treated again with a second dose of methacholine, washed, allowed to return to baseline and washed for an additional hour.
Two chains were used as a control. These were incubated in a concentration of egg albumin sufficient to induce an average contraction of 50-80% of the methacholine response.
Each compound to be tested was added to two other baths (at a final concentration in each bath of 10 μg/ml or lower) 15 minutes prior to challenging the fresh chains with egg albumin.
The response of the challenged tissue was expressed as a percentage of the methacholine maximum. The % inhibition for each compound was then calculated. Compounds which at 10 μg/ml (final concentration) inhibited the egg albumin response by 50% or more were retested at a lower concentration.

[4] = mouse peritoneal macrophages, zymosan

Row | Structure (SMILES) | IC50 [1] [µg/mL] | IC50 [2, 4] [µg/mL] | inhibition at 10 µg/mL ([3]; at 10 μg/ml) [%] | also measured
1 | COc1ccc2c(c1Cl)Sc1cc(F)ccc1N2C | – | – | – | inhibition in vivo at 3 mg/kg (asthmatic rats): 42%
2 | COc1ccc2c(c1Cl)[S+]([O-])c1ccccc1N2 (centres unmarked) | – | – | – | inhibition in vivo at 3 mg/kg (asthmatic rats): 56%
3 | O=S1(=O)c2ccccc2Nc2ccc(O)c(O)c21 | – | – | – | inhibition in vivo at 1.5 mg/kg (asthmatic rats): 65%
4 | CC(=O)N1c2ccccc2Sc2c1ccc(O)c2Cl | – | – | – | inhibition in vivo at 3 mg/kg (asthmatic rats): 61%
5 | CC(=O)Oc1ccc2c(c1Cl)Sc1ccccc1N2C(C)=O | – | – | – | inhibition in vivo at 3 mg/kg (asthmatic rats): 58%
6 | COc1ccc2c(c1Cl)Sc1cc(F)ccc1N2C(C)=O | – | – | – | inhibition in vivo at 3 mg/kg (asthmatic rats): 36%
7 | COc1ccc2c(c1Cl)[S+]([O-])c1cc(F)ccc1N2C (centres unmarked) | – | – | – | inhibition in vivo at 3 mg/kg (asthmatic rats): 52%
8 | COc1ccc2c(c1Cl)Oc1ccccc1N2C | – | – | – | inhibition in vivo at 0.3 mg/kg (asthmatic rats; 0.3 mg/kg p.o.): 49%
9 | Clc1cccc2c1Sc1ccccc1N2 [Compound 3] | 0.05 to 0.5 (≈ 0.214 to 2.14 µM) | 0.01 to 0.1 | 37 | –
10 | Cc1cccc2c1Nc1ccccc1S2 [Compound 4] | – | 5 | 76 | –
11 | FC(F)(F)c1ccc2c(c1)Nc1ccccc1S2 [Compound 5] | – | 0.1 | 7 | –
12 | Oc1ccc2c(c1)Sc1ccccc1N2 [Compound 6] | 0.016 (≈ 0.0743 µM) | 0.1 to 1 | 100 | –
13 | CC(=O)Oc1ccc2c(c1)Sc1ccccc1N2 [Compound 7] | 0.005 (≈ 0.0194 µM) | 0.01 to 0.1 | 60 | –
14 | CC(=O)c1ccc2c(c1)Nc1ccccc1S2 [Compound 8] | – | 0.2 | 60 | –
15 | Oc1ccc2c(c1Cl)Sc1ccccc1N2 [Compound 9] | 0.005 (≈ 0.02 µM) | – | – | inhibition at 3 µg/mL [3]: 97%
16 | Cc1ccc(S(=O)(=O)Oc2ccc3c(c2Cl)Sc2ccccc2N3)cc1 [Compound 10] | 0.1 to 1 (≈ 0.248 to 2.48 µM) | – | – | inhibition at 3 µg/mL [3]: 14%
17 | CC(=O)Oc1ccc2c(c1Cl)Sc1ccccc1N2 [Compound 11] | – | 0.1 | 100 | –
18 | COc1ccc2c(c1Cl)Sc1ccccc1N2 [Compound 12] | 0.01 to 0.1 (≈ 0.0379 to 0.379 µM) | – | – | inhibition at 1 µg/mL ([3]; at 1 μg/ml): 60%

Row | Structure (SMILES) | IC50 [1] [µg/mL] | IC50 [2, 4] [µg/mL] | inhibition at 10 µg/mL ([3]; at 10 μg/ml) [%] | also measured
19 | COc1ccc2c(c1)Sc1cc(Cl)ccc1N2 [Compound 13] | – | 0.12 | 22 | –
20 | Clc1ccc2c(c1)Sc1cc(Cl)ccc1N2 [Compound 14] | 0.005 to 0.05 (≈ 0.0186 to 0.186 µM) | 0.01 to 0.1 | 1 | –
21 | O=[N+]([O-])c1ccc2c(c1)Sc1cc([N+](=O)[O-])ccc1N2 [Compound 15] | – | 0.0016 to 0.008 | 21 | –
22 | COc1ccc2c(c1)Sc1c(cc(OC)c(O)c1Br)N2 [Compound 16] | 0.01 (≈ 0.0282 µM) | – | – | –
23 | CN(C)c1ccc2c(c1)Sc1cc(N(C)C)ccc1N2 [Compound 17] | – | 5 | – | –
24 | Oc1cccc2c1Nc1ccccc1S2 [Compound 18] | 0.05 to 0.5 (≈ 0.232 to 2.32 µM) | – | 3 | –
25 | CC(=O)Oc1ccc2c(c1)Sc1cc(F)ccc1N2 [Compound 19] | 0.005 (≈ 0.0182 µM) | – | – | –
26 | CC(C)C(=O)Oc1ccc2c(c1Cl)Sc1ccccc1N2 [Compound 20] | 0.005 to 0.05 (≈ 0.0156 to 0.156 µM) | – | 65 | –
27 | CC(=O)N1c2ccccc2Sc2ccccc21 [Compound 21] | – | 5 | – | –
28 | COc1ccc2c(c1Cl)Sc1ccccc1N2C(C)=O [Compound 22] | 1 (≈ 3.27 µM) | 1 | 91 | –
29 | FC(F)(F)c1ccc2c(c1)Nc1ccccc1O2 [Compound 23] | 0.05 to 0.5 (≈ 0.199 to 1.99 µM) | – | – | inhibition at 3 µg/mL [3]: 40%
30 | c1ccc2c(c1)Nc1ccccc1O2 [Compound 24] | 5 (≈ 27.3 µM) | – | – | IC50 ([2]; Mus musculus): 0.1 µg/mL; inhibition at 1 µg/mL [3]: 88%
31 | CC(=O)Oc1ccc2c(c1)Sc1cccc(Cl)c1N2C [Compound 25] | 0.5 (≈ 1.64 µM) | – | – | inhibition at 3 µg/mL [3]: 1 to 9%
32 | COc1ccc2c(c1Cl)Sc1ccccc1N2C [Compound 26] | 5 (≈ 18 µM) | 1 | 3 | –
33 | CC(C)C(=O)Oc1ccc2c(c1Cl)Sc1ccccc1N2C [Compound 27] | 0.005 to 0.05 (≈ 0.015 to 0.15 µM) | – | – | inhibition at 3 µg/mL [3]: 6%
34 | c1ccc2c(c1)Nc1ccccc1S2 [drawing 34] | 0.4 (≈ 2.01 µM) | – | – | IC50 ([2]; Mus musculus): 0.06 µg/mL; inhibition at 10 µg/mL [3]: 100%
35 | c1ccc2c(c1)Nc1ccccc1O2 [drawing 75] | – | – | – | inhibition in vivo at 1.5 mg/kg (asthmatic rats): 51%
